Consider 14 compounds from PubChem BioAssay (NCI).

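Growth conditions: 96-well plates. Treatment: test compound, 48 hours, 5 concentrations. Analysis: linear interpolation between bracketing concentrations; unreached endpoints set to highest concentration. Here, GI50 denotes the concentration required for 50% inhibition of growth. The concentration for full growth arrest is given as TGI.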

Common to all, as to assay: growth of human tumour cells (NCI), 48 h
The subject of assay [1] is EKVX NSCLC.
The test system of assay [2] is UACC-257 melanoma.
In assay [3] the test system is NCI-H522 lung.
Assay [4] has as its system SF-539 CNS.
Assay [5] relates to T-47D breast.
The test system of assay [6] is SW-620 colon.
In assay [7] the test system is COLO 205 colon.
Assay [8] concerns MDA-N.
Assay [9] deals with NCI-H460 lung.
Assay [10] has as its system SR leukemia.

With `C=CC[n+]1c2ccccc2n2cc([N+](=O)[O-])ccc21`, the TGI in [1] was greater than 100 µM; in [2] it was 44.6 µM; in assay [3], 41 µM; in assay [4] it was greater than 100 µM; in [5], greater than 100 µM; in [6] it was greater than 100 µM. In addition, the TGI in assay [7] was 26.2 µM; in assay [8], 50.7 µM.
As to `CCc1cc2c(c3c1CCCC3=O)CC1(Cc3ccc(C(=O)OC)cc3C1)C2` (stereo not drawn), the TGI in assay [1], in [2], in [3], in assay [9], in [4] and in assay [5] was greater than 100 µM each time. The TGI in [6], in assay [7] and in assay [8] was greater than 100 µM in each case.
For `Cc1ccccc1N=C(N)Nc1ccccc1C`, the TGI in [1], in [2], in assay [3], in assay [9], in assay [4] and in assay [5] was greater than 100 µM in each case. The TGI in assay [6], in [7] and in assay [8] was greater than 100 µM each time.
Regarding `COc1ccc(/C(Cl)=C/c2cc(OC)ccc2OC)cc1`, the TGI in assay [1], in [10], in [2], in assay [3], in assay [4] and in [6] was greater than 100 µM each time. Besides, the TGI in assay [7] was greater than 100 µM.
On to `COC(=O)C1C(=O)N(C)C(=O)N2CCCC12` (stereo not drawn), for which the TGI in assay [1], in assay [2], in assay [3], in assay [9], in assay [4] and in assay [5] was greater than 100 µM in each case. Also, the TGI in [6], in [7] and in assay [8] was greater than 100 µM throughout.
Regarding `O=C(CCN1CCN2c3ccccc3CCC2C1)c1ccc(F)cc1` (stereo not drawn), the TGI is 58.5 µM in assay [1]; greater than 100 µM in assay [10]; 97.1 µM in assay [2]; 35.7 µM in assay [3]; greater than 100 µM in [9]; 39.9 µM in assay [4]. The TGI was 45.9 µM in assay [5], greater than 100 µM in assay [6] and 44.4 µM in assay [7].
`O=c1oc(C(C(F)(F)F)C(F)(F)F)nc2ccccc12`: the TGI in assay [1], in [10], in [2], in [3], in assay [9] and in assay [4] was greater than 100 µM each time. Besides, the TGI in assay [6] and in [7] was greater than 100 µM each time.
For the compound `CC1=NN(C(=O)c2ccc(Cl)cc2)C(=O)/C1=C/c1ccccc1O`, the TGI in [1], in assay [2], in assay [3], in assay [9], in assay [4] and in assay [6] was greater than 100 µM each time. In addition, the TGI in assay [7] is greater than 100 µM.
Consider `C=C(C)CC1(O[Si](C)(C)C)C(=O)C(OCC)=C1OCC` (stereo not drawn), for which the TGI in [1], in assay [2], in assay [3], in assay [9], in assay [4] and in [5] was greater than 100 µM in each case. Further, the TGI in assay [6] and in assay [7] was greater than 100 µM throughout.
For `Cc1ccc(S(=O)(=O)Nn2c(O)c(C#N)c(-c3ccc(Cl)cc3)c(C#N)c2=O)cc1`, the TGI in assay [1], in [2], in assay [3], in assay [9], in [4] and in assay [6] was greater than 100 µM throughout. Also, the TGI in [7] and in [8] was greater than 100 µM each time.
As for `COc1ccc(OC)c(SC(CC(=O)c2ccccc2)c2ccccc2)c1` (stereo not drawn), the TGI is 31.1 µM in assay [1]; greater than 100 µM in assay [10]; 30.7 µM in assay [2]; 29.2 µM in [3]; greater than 100 µM in [9]; 15.7 µM in [4]. For the same compound, the TGI came to 35.8 µM in assay [5], 12.2 µM in assay [6] and 37.3 µM in [7].
As for `COc1ccc2[nH]c(O)c(/C=c3/cc4c(c(-c5ccc(F)c(OC)c5)n3)=Nc3ccccc3-4)c2c1`, the GI50 in assay [1] is 8.71 µM; in assay [10], 1.86 µM; in assay [2] it was 2.81 µM; in assay [3], 1.81 µM; in [9] it was 1.78 µM; in [4] it was 1.86 µM. Further, the GI50 in assay [5] was 1.85 µM; in [6], 1.77 µM; in assay [7], 2.56 µM. In addition, the TGI in [1] turned out to be 36 µM; in assay [10], 6.96 µM; in [2] it was 8.86 µM; in assay [3], 4.14 µM; in assay [9], 3.41 µM; in [4], 3.37 µM. The TGI in assay [5] came out at 3.78 µM; in [6], 3.8 µM; in [7], 5.87 µM.
For `CN=C(/N=c1\ssc(=NC)n1C)N(C)C`, the TGI in assay [1], in assay [10], in assay [2], in assay [3], in assay [9] and in assay [4] was greater than 100 µM in each case. The TGI in assay [6] and in assay [7] was greater than 100 µM in each case.
On to `COc1cnc2c(c1)C(=O)c1c-2n(CCCNCCO)c(=O)c2ccncc12`, for which the GI50 is 2.29 µM in assay [1]; 2.18 µM in assay [2]; 0.607 µM in [3]; 0.513 µM in assay [9]; 1.4 µM in [4]; 0.845 µM in assay [5]. In addition, the GI50 is 0.52 µM in assay [6] and 0.82 µM in assay [7]. Moreover, the TGI in assay [1] turned out to be 9.27 µM; in assay [2] it was 9.02 µM; in assay [3] it was 7.26 µM; in assay [9] it was 3.99 µM; in [4], 6.95 µM; in [5] it was 37.5 µM. Besides, the figures for the TGI in assay [6] and in [7] were 12.4 µM and 9.05 µM, respectively.
